Biological target: T1, SAMHD1 (Homo sapiens, UniProt Q9Y3Z3)
T1 construct: The final concentrations were 100 nM SAMHD1(115–626), 10 nM Ppx1; strep-tag; made in house
Experiment: SAMHD1 triphosphohydrolase continuous coupled-enzyme assay (MDCC-PBP phosphate biosensor, Ppx1)
Assay type: biochemical
Conditions: for inhibition of SAMHD1 GTP-activated TTP hydrolysis / activation of SAMHD1 TTP hydrolysis: 0.3 mM TTP; for inhibition of SAMHD1 GTP-activated TTP hydrolysis: 0.1 mM GTP; for inhibition of SAMHD1 GTP-activated TTP hydrolysis / hydrolysis by SAMHD1 (substrate): 0.3 mM analogue triphosphate; for activation of SAMHD1 TTP hydrolysis: 0.1 mM analogue triphosphate as activator; for hydrolysis by SAMHD1 (substrate): without and with 0.1 mM GTP
Source text: SAMHD1 hydrolysis, activation and inhibition by nucleotide analogues was quantified using a continuous coupled assay employing the fluorescent phosphate biosensor MDCC-PBP to measure phosphate release from combined SAMHD1 triphosphohydrolase and S. cerevisiae Ppx1 exopolyphosphatase activity, described previously. SAMHD1 and Ppx1 were expressed as strep-tagged fusion proteins and purified as described previously. Didanosine triphosphate (ddI-TP) and dideoxy ATP (ddATP) were from Trilink Biotechnologies, Stavudine triphosphate (d4T-TP) was from Jena biosciences and Chemcyte. Abacavir triphosphate and Carbovir triphosphate were chemically synthesised in house from abacavir and carbovir as described above. Experiments were performed in 20 μL reaction volumes in 384-well low-protein-binding microplates (Corning, USA). In typical experiments, solutions containing SAMHD1, Ppx1, MDCC-PBP and activator (GTP, ddI-TP or d4T-TP), or activator plus inhibitor, were incubated for 5 min in assay buffer (20 mM Tris pH 8.0, 150 mM NaCl, 5 mM MgCl2 and 2 mM TCEP) at 25 °C before the reaction was initiated by the addition of substrate (TTP, ddI-TP or d4T-TP). The final concentrations were 100 nM SAMHD1(115–626), 10 nM Ppx1, 2.5 μM BSA, 40 μM MDCC-PBP (80 μM in ABC-TP and CBV-TP assays). Activator, substrate and inhibitor were added at concentrations described below. The fluorescence intensity increase resulting from the phosphate-product binding to MDCC-PBP was recorded at 430 nm excitation and 465 nm emission over 10–30 min in a Clariostar multiwell plate reader (BMG). Steady-state rates were obtained from the fluorescence time courses by fitting a linear function with maximal slope using the Mars software (BMG). Apparent dissociation constant of ddI-TP binding (KS), catalytic constant (kcat), maximal rate (kmax) and the ddI-TP concentration at half maximal activation (Ka) were determined by nonlinear least squares fitting using a Hill-function in the software package Grafit 7.0.3 (Erithacus software, UK). All measurements were performed at least in triplicate and data are represented as mean ± SEM.

[1] = 1 mM TTP, varying ddI-TP, lower estimate
[2] = Hill equation fit, 0.2 mM GTP, mean ± SEM

T1 sequence (Q9Y3Z3 115-626): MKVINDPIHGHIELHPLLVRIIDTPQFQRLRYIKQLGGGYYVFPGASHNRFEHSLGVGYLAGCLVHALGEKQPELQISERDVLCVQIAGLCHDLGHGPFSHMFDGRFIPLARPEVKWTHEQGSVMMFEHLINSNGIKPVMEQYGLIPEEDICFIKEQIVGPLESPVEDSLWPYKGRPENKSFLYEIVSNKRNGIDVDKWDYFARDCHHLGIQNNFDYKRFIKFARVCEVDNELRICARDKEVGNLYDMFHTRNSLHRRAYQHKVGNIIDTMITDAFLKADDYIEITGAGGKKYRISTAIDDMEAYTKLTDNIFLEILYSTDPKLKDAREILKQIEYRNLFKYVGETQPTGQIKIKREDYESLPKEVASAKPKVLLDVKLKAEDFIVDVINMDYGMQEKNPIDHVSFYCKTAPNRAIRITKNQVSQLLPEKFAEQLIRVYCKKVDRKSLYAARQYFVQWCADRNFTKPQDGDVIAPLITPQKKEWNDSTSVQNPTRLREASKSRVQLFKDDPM

Compound	inhibition of SAMHD1 GTP-activated TTP hydrolysis	activation of SAMHD1 TTP hydrolysis	hydrolysis by SAMHD1 (substrate)	increase of ddI-TP hydrolysis in the presence of activating GTP (0.3 mM ddI-TP, 0.1 mM GTP vs no GTP)	Ka, ddI-TP concentration at half maximal activation of TTP hydrolysis [1] [µM]	maximal rate kmax of TTP hydrolysis activated by ddI-TP [1] [s⁻¹]	apparent binding constant KS of ddI-TP hydrolysis (Hill equation fit, 0.2 mM GTP (saturating activator), mean ± SEM) [µM]	Hill coefficient n of ddI-TP hydrolysis [2]	catalytic constant kcat of ddI-TP hydrolysis [2] [s⁻¹]	ddI-TP hydrolysis rate relative to TTP hydrolysis rate (fold slower) (in the presence of 0.1 mM GTP)
Nc1nc(NC2CC2)c2ncn([C@H]3C=C[C@@H](COP(=O)(O)OP(=O)(O)OP(=O)(O)O)C3)c2n1 [ABC-TP, abacavir-5′-triphosphate]	neither ABC-TP nor CBV-TP displayed any activation or inhibition of SAMHD1	neither ABC-TP nor CBV-TP displayed any activation or inhibition of SAMHD1	not hydrolysed by SAMHD1							
Nc1nc(=O)c2ncn([C@H]3C=C[C@@H](COP(=O)(O)OP(=O)(O)OP(=O)(O)O)C3)c2[nH]1 [CBV-TP, Carbovir 5′-triphosphate]	neither ABC-TP nor CBV-TP displayed any activation or inhibition of SAMHD1	neither ABC-TP nor CBV-TP displayed any activation or inhibition of SAMHD1	not hydrolysed by SAMHD1							
Cc1cn([C@H]2C=C[C@@H](COP(=O)(O)OP(=O)(O)OP(=O)(O)O)O2)c(=O)[nH]c1=O [d4T-TP, stavudine triphosphate]	not a SAMHD1 inhibitor or activator	not a SAMHD1 inhibitor or activator	little or no hydrolytic activity							
Nc1ncnc2c1ncn2[C@H]1CC[C@@H](CO[P@@](=O)(O)O[P@](=O)(O)OP(=O)(O)O)O1 [ddATP, dideoxy ATP]	no measurable activation or inhibition	no measurable activation or inhibition	no hydrolysis by SAMHD1							
O=c1[nH]cnc2c1ncn2[C@H]1CC[C@@H](COP(=O)(O)OP(=O)(O)OP(=O)(O)O)O1 [ddI-TP, didanosine triphosphate]	no significant inhibitory effects	activates SAMHD1 triphosphohydrolase activity, but to a much lesser degree than the natural activator, GTP	hydrolysed by SAMHD1 even in the absence of GTP	three-fold	> 300	> 0.1	226 ± 12	1.7 ± 0.1	0.24 ± 0.04	around six-fold

From paper PMC5318888, “SAMHD1 enhances nucleoside-analogue efficacy against HIV-1 in myeloid cells” (Scientific Reports, 2017)
